Measured values reported in patent US8658637B2, “Glucocorticoid mimetics, methods of making them, pharmaceutical compositions and uses thereof” (Boehringer Ingelheim International GmbH, priority 2006, dated 2014).

Tested on: IL-6 production in human foreskin fibroblast cells
Assay: Inhibition of IL-6 Production in Fibroblasts (Cell Assay for Transrepression)
Assay type: cell-based
Details: IL-1 stimulated human foreskin fibroblasts; for EC50: read-out: agonistic activity (EC50) by inhibiting IL-6 production in Fibroblasts; for Emax: read-out: efficacy by inhibiting IL-6 production in Fibroblasts
Protocol: 2. Inhibition of IL-6 Production in Fibroblasts (Cell Assay for Transrepression)
Human foreskin fibroblast cells produce IL-6 in response to stimulation by proinflammatory cytokine IL-1.
Human foreskin fibroblast cells (ATCC Cat. No. CRL-2429) are plated on 96 well plates at 5,000 cells per well the day before use, in Iscove's Modified Dulbecco's Media (GibcoBRL Life Technologies Cat. No. 12440-053) supplemented with 10% charcoal filtered FBS (Clonetech Cat. No. SH30068) and Gentamycin (GibcoBRL Life Technologies Cat. No. 15710-064). On the next day, media in the wells is replaced with fresh media. Cells are treated with IL-1 (rhIL-1α, R&D Systems Cat. No. 200-LA) to a final concentration of 1 ng/mL, and with test compounds to final concentrations of 10^−5 M to 10^−8 M, in a total volume of 200 μL per well. Samples are done in duplicates. […] Positive control wells receive IL-1 only and represent maximum (or 100%) amount of IL-6 production. Plates are incubated at 37° C. overnight (15 to 18 hours), and supernatants are harvested at the end of incubation. IL-6 levels in the supernatants are determined by the ELISA kits for IL-6 (MedSystems Diagnostics GmbH, Vienna, Austria, Cat. No. BMS213TEN) according to manufacture's instructions. The extent of inhibition of IL-6 by test compounds is expressed in percentage relative to positive controls. IC50 values of test compounds are derived by non-linear curve fitting.

SMILES | EC50 | Emax
C=CCn1cc(C(O)(c2ccc3c(cnn3-c3ccc(F)cc3)c2)C(F)(F)F)c2ccc(Br)cc21 (stereo not shown) [1-(1-Allyl-6-bromo-1H-indol-3-yl)-2,2,2-trifluoro-1-[1-(4-fluorophenyl)-1H-indazol-5-yl]ethanol] | ≤ 1 µM | > 50%
C=CCCn1cc(C(O)(c2ccc3c(cnn3-c3ccc(F)cc3)c2)C(F)(F)F)c2ccccc21 (stereo not shown) [1-(1-But-3-enyl-1H-indol-3-yl)-2,2,2-trifluoro-1-[1-(4-fluorophenyl)-1H-indazol-5-yl]ethanol] | ≤ 1 µM | > 50%
N#Cc1nn(CC(O)CO)cc1C(O)(c1ccc2c(cnn2-c2ccc(F)cc2)c1)C(F)(F)F (stereo not shown) [1-(2,3-Dihydroxypropyl)-4-{2,2,2-trifluoro-1-[1-(4-fluorophenyl)-1H-indazol-5-yl]-1-hydroxyethyl}-1H-pyrazole-3-carbonitrile] | ≤ 1 µM | > 50%
CCOC(=O)c1cc(C(O)(c2ccc3c(cnn3-c3ccc(F)cc3)c2)C(F)(F)F)cn1CC(O)CO (stereo not shown) [1-(2,3-Dihydroxypropyl)-4-{2,2,2-trifluoro-1-[1-(4-fluorophenyl)-1H-indazol-5-yl]-1-hydroxyethyl}-1H-pyrrole-2-carboxylic acid ethyl ester] | ≤ 1 µM | > 50%
C=CCCn1cc(C(O)(c2ccc3c(cnn3-c3ccc(F)cc3)c2)C(F)(F)F)c2ccc(Br)cc21 (stereo not shown) [1-(6-Bromo-1-but-3-enyl-1H-indol-3-yl)-2,2,2-trifluoro-1-[1-(4-fluorophenyl)-1H-indazol-5-yl]ethanol] | ≤ 1 µM | > 50%
OC(c1ccc2c(cnn2-c2ccc(F)cc2)c1)(c1c[nH]c2c(Cl)nccc12)C(F)(F)F (stereo not shown) [1-(7-Chloro-1H-pyrrolo[2,3-c]pyridin-3-yl)-2,2,2-trifluoro-1-[1-(4-fluorophenyl)-1H-indazol-5-yl]ethanol] | ≤ 1 µM | > 50%
C=CCn1cc(C(O)(c2ccc3c(cnn3-c3ccc(F)cc3)c2)C(F)(F)F)c(C#N)n1 (stereo not shown) [1-Allyl-4-{2,2,2-trifluoro-1-[1-(4-fluorophenyl)-1H-indazol-5-yl]-1-hydroxyethyl}-1H-pyrazole-3-carbonitrile] | ≤ 1 µM | > 50%
C=CCn1cc(C(O)(c2ccc3c(cnn3-c3ccc(F)cc3)c2)C(F)(F)F)cc1C(=O)OCC (stereo not shown) [1-Allyl-4-{2,2,2-trifluoro-1-[1-(4-fluorophenyl)-1H-indazol-5-yl]-1-hydroxyethyl}-1H-pyrrole-2-carboxylic acid ethyl ester] | ≤ 1 µM | > 50%
C=CCn1cc(C(O)(c2ccc3c(cnn3-c3ccc(F)cc3)c2)C(F)(F)F)c2ccn(C)c(=O)c21 (stereo not shown) [1-Allyl-6-methyl-3-{2,2,2-trifluoro-1-[1-(4-fluorophenyl)-1H-indazol-5-yl]-1-hydroxyethyl}-1,6-dihydropyrrolo[2,3-c]pyridin-7-one] | ≤ 1 µM | > 50%
CC1(C)OCC(Cn2cc(C(O)(c3ccn4c(-c5ccc(F)cc5)ncc4c3)C(F)(F)F)c3ccccc32)O1 (stereo not shown) [1-[1-(2,2-Dimethyl-1,3-dioxolan-4-ylmethyl)-1H-indol-3-yl]-2,2,2-trifluoro-1-[3-(4-fluorophenyl)imidazo[1,5-a]pyridin-7-yl]ethanol] | ≤ 1 µM | > 50%
OCCn1cc(C(O)(c2ccc3c(cnn3-c3ccc(F)cc3)c2)C(F)(F)F)c2ncnc(Cl)c21 (stereo not shown) [1-[4-Chloro-5-(2-hydroxyethyl)-5H-pyrrolo[3,2-d]pyrimidin-7-yl]-2,2,2-trifluoro-1-[1-(4-fluorophenyl)-1H-indazol-5-yl]ethanol] | ≤ 1 µM | > 50%
Cn1cc(C(O)(c2ccc3c(cnn3-c3cccnc3)c2)C(F)(F)F)c2ccccc21 (stereo not shown) [2,2,2-Trifluoro-1-(1-methyl-1H-indol-3-yl)-1-(1-pyridin-3-yl-1H-indazol-5-yl)ethanol] | ≤ 1 µM | > 50%
Cn1cc(C(O)(c2ccc3c(cnn3-c3ccsc3)c2)C(F)(F)F)c2ccccc21 (stereo not shown) [2,2,2-Trifluoro-1-(1-methyl-1H-indol-3-yl)-1-(1-thiophen-3-yl-1H-indazol-5-yl)ethanol] | ≤ 1 µM | > 50%
Cn1cc(-n2ncc3cc(C(O)(c4cn(C)c5ccccc45)C(F)(F)F)ccc32)cn1 (stereo not shown) [2,2,2-Trifluoro-1-(1-methyl-1H-indol-3-yl)-1-[1-(1-methyl-1H-pyrazol-4-yl)-1H-indazol-5-yl]ethanol] | ≤ 1 µM | > 50%
Cn1cc(C(O)(c2ccc3c(c2)nnn3-c2ccc(F)cc2)C(F)(F)F)c2ccccc21 (stereo not shown) [2,2,2-Trifluoro-1-[1-(4-fluorophenyl)-1H-benzotriazol-5-yl]-1-(1-methyl-1H-indol-3-yl)ethanol] | ≤ 1 µM | > 50%
OC(c1ccc2c(cnn2-c2ccc(F)cc2)c1)(c1c[nH]c2ncccc12)C(F)(F)F (stereo not shown) [2,2,2-Trifluoro-1-[1-(4-fluorophenyl)-1H-indazol-5-yl]-1-(1H-pyrrolo[2,3-b]pyridin-3-yl)ethanol] | ≤ 1 µM | > 50%
COc1nccc2c(C(O)(c3ccc4c(cnn4-c4ccc(F)cc4)c3)C(F)(F)F)c[nH]c12 (stereo not shown) [2,2,2-Trifluoro-1-[1-(4-fluorophenyl)-1H-indazol-5-yl]-1-(7-methoxy-1H-pyrrolo[2,3-c]pyridin-3-yl)ethanol] | ≤ 1 µM | > 50%
[O-][n+]1cccc2c(C(O)(c3ccc4c(cnn4-c4ccc(F)cc4)c3)C(F)(F)F)c[nH]c21 (stereo not shown) [2,2,2-Trifluoro-1-[1-(4-fluorophenyl)-1H-indazol-5-yl]-1-(7-oxy-1H-pyrrolo[2,3-b]pyridin-3-yl)ethanol] | ≤ 1 µM | > 50%
OC(c1ccc2c(cnn2-c2ccc(F)cc2)c1)(c1cn(CCN2CCOCC2)c2ccccc12)C(F)(F)F (stereo not shown) [2,2,2-Trifluoro-1-[1-(4-fluorophenyl)-1H-indazol-5-yl]-1-[1-(2-morpholin-4-ylethyl)-1H-indol-3-yl]ethanol] | ≤ 1 µM | > 50%
OC(c1ccc2c(cnn2-c2ccc(F)cc2)c1)(c1cn(CC2CCCO2)c2ccccc12)C(F)(F)F (stereo not shown) [2,2,2-Trifluoro-1-[1-(4-fluorophenyl)-1H-indazol-5-yl]-1-[1-(tetrahydro-furan-2-ylmethyl)-1H-indol-3-yl]ethanol] | ≤ 1 µM | > 50%
Cn1cc(C(O)(c2ccc3c(cnn3-c3ccc(F)nc3)c2)C(F)(F)F)c2ccccc21 (stereo not shown) [2,2,2-Trifluoro-1-[1-(6-fluoropyridin-3-yl)-1H-indazol-5-yl]-1-(1-methyl-1H-indol-3-yl)ethanol] | ≤ 1 µM | > 50%
Cn1cc(C(O)(c2ccn3c(-c4ccc(F)cc4)ncc3c2)C(F)(F)F)c2ccccc21 (stereo not shown) [2,2,2-Trifluoro-1-[3-(4-fluorophenyl)imidazo[1,5-a]pyridin-7-yl]-1-(1-methyl-1H-indol-3-yl)ethanol] | ≤ 1 µM | > 50%
NC(=O)Cn1cc(C(O)(c2ccc3c(cnn3-c3ccc(F)cc3)c2)C(F)(F)F)c2cccnc21 (stereo not shown) [2-(3-{2,2,2-Trifluoro-1-[1-(4-fluorophenyl)-1H-indazol-5-yl]-1-hydroxyethyl}pyrrolo[2,3-b]pyridin-1-yl)acetamide] | ≤ 1 µM | > 50%
CNC(=O)Cn1cc(C(O)(c2ccc3c(cnn3-c3ccc(F)cc3)c2)C(F)(F)F)c2ccc(Br)cc21 (stereo not shown) [2-(6-Bromo-3-{2,2,2-trifluoro-1-[1-(4-fluorophenyl)-1H-indazol-5-yl]-1-hydroxyethyl}indol-1-yl)-N-methylacetamide] | ≤ 1 µM | > 50%
Cn1ccc2c(C(O)(c3ccc4c(cnn4-c4ccc(F)cc4)c3)C(F)(F)F)cn(CC(N)=O)c2c1=O (stereo not shown) [2-(6-Methyl-7-oxo-3-{2,2,2-trifluoro-1-[1-(4-fluorophenyl)-1H-indazol-5-yl]-1-hydroxyethyl}-6,7-dihydropyrrolo[2,3-c]pyridin-1-yl)acetamide] | ≤ 1 µM | > 50%
NC(=O)Cn1cc(C(O)(c2ccc3c(cnn3-c3ccc(F)cc3)c2)C(F)(F)F)c2ccnc(Cl)c21 (stereo not shown) [2-(7-Chloro-3-{2,2,2-trifluoro-1-[1-(4-fluorophenyl)-1H-indazol-5-yl]-1-hydroxyethyl}pyrrolo[2,3-c]pyridin-1-yl)acetamide] | ≤ 1 µM | > 50%
NC(=O)Cn1cc(C(O)(c2ccc3c(cnn3-c3cccnc3)c2)C(F)(F)F)c2ccccc21 (stereo not shown) [2-{3-[2,2,2-Trifluoro-1-hydroxy-1-(1-pyridin-3-yl-1H-indazol-5-yl)ethyl]indol-1-yl}acetamide] | ≤ 1 µM | > 50%
OCC(O)Cn1cc(C(O)(c2ccc3c(c2)nnn3-c2ccc(F)cc2)C(F)(F)F)c2ccccc21 (stereo not shown) [3-(3-{2,2,2-Trifluoro-1-[1-(4-fluorophenyl)-1H-benzotriazol-5-yl]-1-hydroxyethyl}indol-1-yl)propane-1,2-diol] | ≤ 1 µM | > 50%
NC(=O)CCn1cc(C(O)(c2ccc3c(cnn3-c3ccc(F)cc3)c2)C(F)(F)F)c2ccccc21 (stereo not shown) [3-(3-{2,2,2-Trifluoro-1-[1-(4-fluorophenyl)-1H-indazol-5-yl]-1-hydroxyethyl}indol-1-yl)propionamide] | ≤ 1 µM | > 50%
